The text below walks through data of patent publication US20040106135A1, “Assay for PPAR ligand dependent gene modulation” (priority 2002, published 2004).

Test [1] deals with hamster PDK-4 mRNA in kidney. As to the kind of experiment: PDK-4 mRNA induction in kidney of fat-fed hamsters. Type of test: in vivo. Particulars: single dose (GW9578 3 mg/kg, fenofibrate 100 mg/kg, gemfibrozil 500 mg/kg), 16 hours. How it is done:
FIG. 4B is a bar graphs depicting the induction of PDK-4 mRNA in hamster kidney by PPARα ligands. […] After 16 hours, the tissues were harvested, total RNA isolated and levels of hamster PDK-4 mRNA were detected by RT-PCR. The values are normalized to 18S rRNA levels. The mean and SEM of three individual animals are shown.
PDK-4 plays a critical role in regulating glucose metabolism by phosphorylating and inactivating the pyruvate dehydrogenase complex in response to increased fatty acid oxidation. […] To investigate the response of PDK-4 to fibrate treatment in vivo, in another aspect of the present invention the fat-fed hamster model was employed, which closely mimics the serum lipid profiles of humans than other rodent models (Sullivan et al., (1993) Lab. Anim. Sci. 43:575-578). […] These doses were previously shown to yield maximal effects on blood triglycerides in hamster. […] In hamster kidney, the basal levels of PDK-4 mRNA were approximately 10-fold higher than in the liver (FIG. 4B). […] Fibrates are effective treatments for lowering serum triglyceride levels. To verify that the doses used in this study were efficacious, blood triglyceride levels were monitored over a 48 hour time course.
Real-time PCR: Fluorescence-based real-time PCR was performed essentially as described (Abbaszade et al., (1999) J. Biol. Chem. 274:23443-23450). […] Taqman-based real-time PCR expression profiling was performed using 25 ng of each cDNA according to the manufacturer's (PE Biosystems) instructions with fluorescence being monitored in real-time with an ABI Prism 7700 (PE Biosystems). Relative expression levels were determined essentially as described (Gibson et al., (1996) Genome Res. 6:995-1001) using standard curves for each transcript. Relative abundance was then determined from these standard curves, subtracting mRNA levels obtained from negative control reactions performed in the absence of reverse transcriptase, and normalized to 18S rRNA levels. […]

The next test relates to ACHN cells. The experiment in a line: Transcriptional profiling by DNA microarray, ACHN cells. Type of test: cell-based, human. The source says:
Threshold cutoffs were set at fold change >1.4; p<0.01; and statistically significant in at least 2 experiments. The genes fatty acid CoA ligase 2 (FACL2), palmitoyl acyl-CoA oxidase 1 (ACOX1), and carnitine palmitoyl acyl-CoA transferase (CPT1A) are included for comparison based on published reports that they are PPARα responsive genes in HepG2 cells over expressing PPARα (Hsu et al., (2001) J. Biol. Chem. 276:27950-8; Lawrence et al., (2001) J. Biol. Chem. 276:31521-7).
Expression profiling: Expression profiling of RNA samples was performed essentially as described (Lockhart et al., (1996) Nat. Biotechnol. 14:1675-80) using the Affymetrix human U95Av2 array. Briefly, RNA was isolated from 100 mm cell culture dishes, DNased, and 15 μg used as a template for double stranded cDNA synthesis according to standard protocols (Invitrogen). […] The resultant cRNA products were purified using RNeasy columns (Qiagen), pooled, and quantitated spectrophotometrically. […]
Data Analysis: Affymetrix CEL files from GeneChip 4.0 (Affymetrix) were imported into Resolver 2.0 under an empirically derived Affymetrix error model (Rosetta Inpharmatics). […] Accordingly, the statistical significance (P-value) of a given expression data point takes into account the underlying error associated with the Affymetrix transcript abundance measurements as determined by this platform-specific error model. […]

As for `CCCCCCCN(CCc1ccc(SC(C)(C)C(=O)O)cc1)C(=O)Nc1ccc(F)cc1F` [GW9578, ureido-thioisobutyric acid], the “Induction of PDK-4 mRNA in kidney” value in test [1] is listed as 7 fold. Further, the “ADRP induction in ACHN cells” value in the test on ACHN cells is listed as “significantly induced”.
